One data set addresses non-muscle actin. Description: F-actin co-sedimentation assay, non-muscle actin. The data set is classed as binding. The method, then: Muscle actin, non-muscle actin, α-actinin and pyrene actin were purchased from Cytoskeleton, Inc. Actin was diluted to working concentrations in G buffer (2 mM Tris HCl, pH 8.0, 0.2 mM ATP, 0.1 mM CaCl2, 0.5 mM DTT).
Polymerization of actin was induced by addition of 0.1 volume 10×KMEI buffer (50 mM KCl, 1 mM MgCl2, 1 mM EGTA, 10 mM imidazole HCl, pH 7.0) and incubation for >1 h at room temperature (RT). […] The supernatant was removed and the pellet resuspended in 100 μl of 1×KMEI buffer. The amount of peptide was measured in a Cary Eclipse Fluorescence Spectrophotometer with excitation/emission set for FITC at 495 nm/520 nm. The bound/total ratio was calculated as the signal from the pellet divided by the total signal. The Kd was obtained by fitting to a hyperbolic curve.

The next data set has as its system F-actin in MDCK cells. Nature of the data set: Double staining of PFA fixed MDCK cells with Cy3-conjugated phalloidin. Format: cell-based, canine. Conditions: TIRF microscopy. The text has this:
(§1) TIRE images were captured on an iMic-stand from Till photonics with an 1.45 NA 100× objective from Olympus. A 300 mW Argon laser and a 20 mW DPSS 561 nm laser were selected through an AOTF. A 2-axis scan head (Yanus II) was used to digitally adjust the TIRE angle. Images were collected with a cooled Imago QE CCD camera. Acquisition was controlled by the TILLvisION software package. Confocal images were collected on a standard Leica SP2 setup. Epifluorescence images were collected on a Zeiss axiovert 200M stand equipped with a climate control chamber from EMBL.

Data set [1] can be described thus: Solubility of peptide in PBS. The data set is classed as physicochemical.
In data set [2] the test system is MDCK and mouse embryonic fibroblasts. Nature of the data set: Cytotoxicity, morphology and growth of transfected cells. The data set is classed as cell-based. Conditions: transiently and stably transfected cells. The method, then:
(§2) Mouse primary dendritic cells were generated from flushed bone marrow suspension as described previously^30. At day 8-10 cells were nucleofected using the primary mouse T cell kit and the Amaxa nucleoporator according to the manufacturers recommendations and immediately after transfection 200 ng/ml LPS were added over night and cells were subsequently sorted into GFP positive and negative fractions by using fluorescent activated cell sorting. MDCK cells and mouse embryonic Fibroblasts were grown according to standard procedures and transfected using lipofectamine.

In data set [3] the test system is primary rat hippocampal neurons. Description: Neuronal polarization of transfected hippocampal neurons. Format: cell-based. The note with it: mock transfected cells 69±9%. The method, then:
Primary hippocampal neurons were isolated from rat embryos as previously described. Briefly, hippocampi derived from E18 rats were dissected, trypsinized, and dissociated. Directly after dissociation, 5×10^5 hippocampal neurons were transfected by the Amaxa nucleofector system using 3 μg of highly purified plasmid DNA of pEGFP-Lifeact, pEGFP-actin or pEGFP-N2. The neurons were then immediately plated onto poly-L-lysine-coated glass coverslips in 6 cm petri dishes containing minimal essential medium (MEM) and 10% heat-inactivated horse serum. The cells were kept in 5% CO2 at 36.5° C. 6-12 hrs after plating the glass coverslips were then transferred into 6 cm petri dishes containing astrocytes in MEM and N2 supplements and kept in culture for 2DIV.
Neurons were categorized into three stages: neurons with a single axon, multiple axons or no axon. A neurite length >35 μm was used as threshold to define the axon. Developmental stages were observed by live cell microscopy as described.

The subject of data set [4] is mouse embryonic fibroblasts. Nature of the data set: Lamellipodial retrograde actin flow in fibroblasts. The data set is classed as cell-based. The note with it: transfected fibroblasts; indistinguishable from untransfected cells.
Source text: as §1
All image processing steps were performed in Metamorph (Molecular Devices). For visualization purposes sequences were routinely processed by sequential application of a local background subtraction filter and a 3×3 gauss low pass filter. Color overlays and kymographs were created with the respective functions in Metamorph.
Mouse primary dendritic cells were generated from flushed bone marrow suspension as described previously^30. At day 8-10 cells were nucleofected using the primary mouse T cell kit and the Amaxa nucleoporator according to the manufacturers recommendations and immediately after transfection 200 ng/ml LPS were added over night and cells were subsequently sorted into GFP positive and negative fractions by using fluorescent activated cell sorting. […]

The next data set has as its system mouse dendritic cells. Nature of the data set: Chemotactic dendritic cell migration in 3-dimensional collagen matrix. The data set is classed as cell-based. Conditions: CCL19 gradient. On the procedure:
as §2
PureCol™ gels containing mature dendritic cells were cast as described previously. Gels were overlayed with 50 μl of 0.6 μg/ml CCL19 (R&D Systems) in RPMI, 10% FCS and imaged on an inverted Axiovert 40 (Zeiss) microscopes, equipped with custom built climate chambers (5% CO2, 37° C., humidified). Under agarose dendritic cell migration was performed as described^31. Briefly, dendritic cells were added into wells punched into an agarose layer. Recombinant CCL19 was added into the adjacent well and, following the chemokine gradient, the cells entered the space between agarose and coverslip. Chemotaxing cells were subsequently imaged with TIRF microscopy.

As usually defined, the Kd is a measure of binding affinity in units of concentration. Higher therefore signals lower affinity. The compound `CC[C@H](C)[C@H](NC(=O)[C@H](CC(C)C)NC(=O)[C@H](CC(=O)O)NC(=O)[C@H](C)NC(=O)[C@@H](NC(=O)CNC(=O)[C@H](CCSC)NC(=S)Nc1ccc2c(c1)C(=O)OC21c2ccc(O)cc2Oc2cc(O)ccc21)C(C)C)C(=O)N[C@@H](CCCCN)C(=O)N[C@@H](CCCCN)C(=O)N[C@@H](Cc1ccccc1)C(=O)N[C@@H](CCC(=O)O)C(=O)N[C@@H](CO)C(=O)N[C@H](C(=O)N[C@@H](CO)C(=O)N[C@@H](CCCCN)C(=O)N[C@@H](CCC(=O)O)C(=O)N[C@@H](CCC(=O)O)C(=O)O)[C@@H](C)CC` [F-Lifeact] returned a dissociation constant (Kd) on non-muscle actin of 5.4 ± 2.6 µM. Moreover, the “overlap with phalloidin staining” value with F-actin in MDCK cells is given as “nearly complete overlap”.
For `CC[C@H](C)[C@H](NC(=O)[C@H](CC(C)C)NC(=O)[C@H](CC(=O)O)NC(=O)[C@H](C)NC(=O)[C@@H](NC(=O)CNC(=O)[C@@H](N)CCSC)C(C)C)C(=O)N[C@@H](CCCCN)C(=O)N[C@@H](CCCCN)C(=O)N[C@@H](Cc1ccccc1)C(=O)N[C@@H](CCC(=O)O)C(=O)N[C@@H](CO)C(=O)N[C@H](C(=O)N[C@@H](CO)C(=O)N[C@@H](CCCCN)C(=O)N[C@@H](CCC(=O)O)C(=O)N[C@@H](CCC(=O)O)C(=O)O)[C@@H](C)CC` [Lifeact], the “solubility in PBS” value in data set [1] is listed as “not soluble in PBS”.
Consider “Lifeact-G: Lifeact-GFP fusion expressed from pEGFP-N1 backbone under the CMV promoter”, for which the signs of cytotoxicity entry in data set [2] was “no signs of cytotoxicity”. The “cells formed one axon” value in data set [3] is recorded as 60.1±0.2%. Further, the “speed of retrograde flow in lamellipodia” value in data set [4] is recorded as 4 μm/min. In addition, in the data set on mouse dendritic cells, the “effect on speed of chemotactic dendritic cell migration” value is given as “no effect”.

These data come from US9255128B2, “Nucleic acid for determining actin structures in living cells” (Max-Planck-Gesellschaft zur Forderung der Wissenschaften …, priority 2007, dated 2016).
